Data as given in patent US20260256933A1, “METHOD FOR TREATING CANCER VIA ANTI-B7H3 ANTIBODY-DRUG CONJUGATE” (MediLink Therapeutics (Suzhou) Co., Ltd., priority 2023, published 2026).

Key:
[1] = test system: recurrent or malignant cervical cancer; details: treatment of recurrent or malignant cervical cancer; clinical; cited from earlier work
[2] = test system: B-hB7-H3 MC38 transplantation tumours; assay: B-hB7-H3 MC38 transplantation tumour model, ADC1 in combination with anti-PD-L1 drug; format: in vivo, C57BL/6 mice; details: G4: anti-PD-L1 3 mg/kg i.p. BIW x4
Protocol: MC38 cells (Shunran (Shanghai) Biotechnology Co., Ltd.) were genetically modified to express the human B7H3 genes, thereby obtaining B-hB7-H3 MC38 cells. The cells were subcutaneously inoculated into C57BL/6 mice to establish a B-hB7-H3 MC38 tumour cell transplantation tumour model. When the tumours grew to approximately 140 mm^3, grouping for animal experiments was performed, a control group (G1: 0.9% sodium chloride injection), monotherapy groups (G2: ADC1 10 mg/kg group, G3: ADC1 3 mg/kg group, G4: anti-PD-L1 3 mg/kg group), and combination therapy groups (G5: group with ADC1 10 mg/kg in combination with anti-PD-L1 3 mg/kg, G6: group with ADC1 3 mg/kg in combination with anti-PD-L1 3 mg/kg) were established respectively, with 8 mice in each group. Dosing was performed according to the regimen in Table 1. The anti-PD-L1 drug was atezolizumab (Biocytogen). At the end of the experiment, therapeutic effects were evaluated according to the tumour growth inhibition (TGI), and tolerability was evaluated according to clinical observations, body weight changes, and mortality of the animals.
Note: a: the dosing volume was calculated at […] based on the body weight of the experimental animals, and each drug injection was completed within 10 to 20 seconds. • b: BIW refers to administration twice weekly. When the combined treatment groups were dosed on the same day, there was no required sequence or dosing interval between the two drugs.
Note: a: mean±standard error; b: statistical comparison of the tumour volume in the dosing groups versus the tumour volume in the G1 control group on Day 22 after grouping for dosing, one-way ANOVA analysis and Dunnett's test; ****p<0.0001. c: the tumour clearance proportion was counted according to the results on Day 25.

| Substance | ORR [1] | TGITV (%) ([2]; Day 22) | Tumour volume before dosing ([2]; baseline before dosing, mean) | Tumour clearance proportion ([2]; counted on Day 25) | Tumour volume Day 22 after grouping for dosing ([2]; mean) |
| --- | --- | --- | --- | --- | --- |
| Tivdak: an ADC drug targeting TF | 24% |  |  |  |  |
| atezolizumab [Anti-PD-L1] |  | 22.4% | 140 mm3 | 0/8 | 1689 mm3 |
